Assay results taken from patent publication US7691857B2, “Muscarinic agents as therapeutic compounds” (Muscagen Limited, priority 2003, dated 2010).

Biological target: M1 receptor (Oryctolagus cuniculus, UniProt G1SR55)
Assay: Functional assay of M1 receptor activity, electrically stimulated rabbit vas deferens preparation
From the text: M1 receptor activity of a compound of the invention may be examined with the rabbit vas deferens using a method developed from that described previously (Dorje F, Rettenmayr N, Mutschler E and Lambrecht G, Eur J Pharmacol 1991, 203, 417-420). The tissue is stimulated electrically to contract and the conditions are optimized so that M1 receptor agonists produce a concentration-related inhibition of contraction height. Any activity at M2 receptors is indicated by an increase in the contraction height. M2 receptor activity may also be recorded from increases in contraction of the guinea-pig paced left atria. M3 receptor activity is measured from the contraction of the guinea-pig ileum. […]
Initial evaluation of the test compound is by assay of functional tissue responses. This has the advantage that it readily discriminates between agonist, partial agonist and antagonist activity. […]
Male New Zealand white rabbits (1.47-3.4 Kg) are killed by a blow to the back of the head and vasa deferentia removed, dissected free of connective tissue and divided into prostatic and epididmyal portions. […] Isometric tension is recorded by computer at a sampling rate of 100 Hz, using Powerlab/200 (ADInstruments) software and MacLab bridge amplifiers. […]

Sequence of M1 receptor (G1SR55 1-460): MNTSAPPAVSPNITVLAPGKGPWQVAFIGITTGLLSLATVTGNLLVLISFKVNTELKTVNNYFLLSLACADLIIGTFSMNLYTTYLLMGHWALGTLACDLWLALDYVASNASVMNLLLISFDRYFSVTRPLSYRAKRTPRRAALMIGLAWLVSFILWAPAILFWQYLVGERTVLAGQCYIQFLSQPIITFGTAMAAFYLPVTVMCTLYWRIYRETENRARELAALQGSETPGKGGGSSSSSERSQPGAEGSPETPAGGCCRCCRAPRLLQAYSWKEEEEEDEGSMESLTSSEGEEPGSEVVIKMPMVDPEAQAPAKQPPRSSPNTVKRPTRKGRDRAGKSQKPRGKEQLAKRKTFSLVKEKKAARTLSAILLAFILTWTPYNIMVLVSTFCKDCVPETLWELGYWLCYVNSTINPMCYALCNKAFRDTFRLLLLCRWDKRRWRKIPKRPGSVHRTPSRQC

Question: Which results are given for `COCC1CNCC2(C3CCC3)C1OC(=O)N2Cc1ccccc1` (centres unmarked) [Example 1, 3-Benzyl-3a-cyclobutyl-7-methoxymethyl-2-oxo-octahydro-oxazolo[4,5-c]pyridin-5-ium]?
Answer: EC50 (M1 agonism, inhibition of twitch height in field-stimulated rabbit vas deferens, read-out: potency (EC50 value)): 100 nM; partial M1 agonist (extent of agonism) (rabbit vas deferens functional tissue response): 50%
